# Measured values taken from patent US20210102239A1, “METHOD FOR DETERMINING BACTERIAL NUMBER IN SPECIMEN” (MITSUI CHEMICALS, INC., priority 2017, published 2021).
# Legend:
# K. oxytoca = assay: drug sensitivity test of the pathogenic bacterium from blood culture; format: cell-based, Klebsiella oxytoca; conditions: Case 2, isolate from blood specimen sampled before antibiotic treatment
# Method: (§1) According to Step 1 to Step 4 of Example 1, a pathogenic bacterium rapid quantification test using sepsis patient's specimens (EDTA blood collection tube, 2 mL) was carried out. […] Blood was sampled before treatment with an antibiotic (pretreatment), and 24 hours (after 24 hrs.) and 72 hours (after 72 hrs.) after administration of the antibiotic. At the three points, a pathogenic bacterium rapid quantification test was carried out together with measurement of body temperature, white blood cell count, CRP, presepsin and IL-6. Furthermore, a blood specimen sampled before the antibiotic treatment was subjected to a blood culture method to identify a pathogenic bacterium and subjected to a drug sensitivity test. General information about individual cases is as follows.
# H. influenzae = assay: as above; format: cell-based, Haemophilus influenzae; conditions: Case 2, isolate from blood specimen sampled before antibiotic treatment
# Method: as §1
# S. pneumoniae = assay: as above; format: cell-based, Streptococcus pneumoniae; conditions: Case 2, isolate from blood specimen sampled before antibiotic treatment
# Method: as §1
# [1] = system: Klebsiella oxytoca, Haemophilus influenzae, Streptococcus pneumoniae; assay: Case 2: pathogen count (nested PCR) and biomarkers in blood before/after antibiotic treatment; format: in vivo, human (sepsis patient); conditions: for BT (body temperature): pretreatment 39.2; for WBC: pretreatment 108.8; for CRP: pretreatment 150.3; for Presepsin: pretreatment 5379; for IL-6: pretreatment 122000; for Pathogen (Ave): pretreatment 175270
# Method: (§2) First, bacterial cells were collected from a blood specimen by centrifuging the whole blood at a low rate of 100×g for 5 minutes to separate blood cells, centrifuging the resultant supernatant (containing buffy coat) at a high rate of 20,000×g for 10 minutes to obtain a pellet.
# (§3) Using DNA of a pathogenic bacterium taken from the blood specimen according to the method of Step 1 as a template, nested PCR (1st PCR: 30 cycle→100 double dilution→2nd PCR: 30 to 35 cycles) is carried out. The bacterial cells in patient specimens vary in a wide range from very small to large number. Since it is difficult to accurately determine the bacterial number in a single cycle of PCR, nested PCR methods are used in combination.
# (§4) Subsequently, using pathogenic bacterium DNA of Step 1 as a template, nested PCR was carried out together with a quantification control in the conditions described in Step 2. In the 1st PCR and 2nd PCR for quantification, the following bacterial universal primer (primer for detecting almost all bacteria) was used. The target region of the bacterial universal primer is a bacterial conserved region (base sequence region common in almost all bacteria) of a 16S ribosomal RNA gene. A predetermined bacterium is quantified by a bacterial species-specific primer; however, a pathogenic bacterium is not identified in the early stage of sepsis. Because of this, a bacterial species-specific primer cannot be used. Accordingly, unless a bacterial universal primer is used, an unidentified bacterium cannot be detected.
# (§5) As mentioned above, E. coli DNA samples of three different concentrations and of a known bacterial number were used as quantification controls. Based on the data of three quantification controls different in concentration, a calibration curve was prepared. Based on bacterial DNA extracted from a patient specimen, the number of pathogenic bacterial cells was determined. Since the number of bacterial cells was obtained as an E. coli cell-number equivalent used as a quantification control, the number of bacterial cells in a specimen can be more easily, rapidly and accurately determined.
# as §1
# Escherichia coli [2] = assay: drug sensitivity test of the pathogenic bacterium from blood culture; format: cell-based; conditions: isolate from blood specimen sampled before antibiotic treatment
# Method: as §1
# According to Step 1 to Step 5 of Example 1, a pathogenic bacterium rapid identification/quantification test using sepsis patient's specimens (EDTA blood collection tube, 2 mL) was carried out. […] Blood was sampled before treatment with an antibiotic (pretreatment), and 24 hours (after 24 hrs.) and 72 hours (after 72 hrs.) after administration of the antibiotic. At the three points, a pathogenic bacterium rapid identification/quantification test was carried out together with measurement of body temperature, white blood cell count, CRP, presepsin and IL-6. […]
# Enterobacter aerogenes [3] = assay: as above; format: cell-based; conditions: Case 7, isolate from blood specimen sampled before antibiotic treatment
# Method: as §1, with “Step 5” for “Step 4”, “rapid identification/quantification” for “rapid quantification”
# Escherichia coli [4] = assay: Case 3: pathogen count (nested PCR) and biomarkers in blood before/after antibiotic treatment; format: in vivo, human (sepsis patient); conditions: for CRP: pretreatment 1.1; for BT (body temperature): pretreatment 39.6; for WBC: pretreatment 168.3; for Presepsin: pretreatment 343; for IL-6: pretreatment 678; for Pathogen (Ave): pretreatment 3600
# Method: as §2, §3, §4, §5, §1
# Case 3: • person, sepsis associated with urinary tract infection • blood culture/urine culture: Escherichia coli • antibiotics substance: tazobactam/piperacillin (sensitive)
# Escherichia coli [5] = assay: Case 5: pathogen identification/quantification and biomarkers in blood before/after antibiotic treatment; format: in vivo, human (sepsis patient); conditions: for CRP: pretreatment 1.1; for BT (body temperature): pretreatment 39.6; for WBC: pretreatment 168.3; for Presepsin: pretreatment 343; for IL-6: pretreatment 678; for Pathogen (Ave): pretreatment 3600
# Method: as §2, §3, §4
# (§6) As mentioned above, E. coli DNA samples of three different concentrations and of a known bacterial number were used as quantification controls. Based on the data of three quantification controls different in concentration, a calibration curve was prepared. Based on bacterial DNA extracted from a patient specimen, the number of pathogenic bacterial cells was determined.
# (§7) For the reason, it is necessary to make a correction based on the operon copy number per bacterium species in order to more accurately determine bacterial number. Since identification and qualification of a pathogenic bacterium are carried out concurrently in Step 3 and Step 4, the number of pathogenic bacterial cells can be corrected based on 16S ribosomal RNA operon copy number of the bacterium identified to computationally obtain the correct number of bacterial cells.
# as §1, with “Step 5” for “Step 4”, “rapid identification/quantification” for “rapid quantification”
# [6] = system: Streptococcus dysgalactiae; assay: Case 6: pathogen identification/quantification and biomarkers in blood before/after antibiotic treatment; format: in vivo, human (sepsis patient); conditions: for BT (body temperature): pretreatment 39.7; for WBC: pretreatment 89.5; for IL-6: pretreatment 115; for CRP: pretreatment 136.1; for Presepsin: pretreatment 1373; for Pathogen (Ave): pretreatment 2651
# Method: as §2, §3, §4, §6, §7
# as §1, with “Step 5” for “Step 4”, “rapid identification/quantification” for “rapid quantification”
# Enterobacter aerogenes [7] = assay: Case 7: pathogen identification/quantification and biomarkers in blood before/after antibiotic treatment; format: in vivo, human (sepsis patient); conditions: for BT (body temperature): pretreatment 38.8; for WBC: pretreatment 59.4; for CRP: pretreatment 72.3; for Presepsin: pretreatment 1322; for Pathogen (Ave): pretreatment 41083; for IL-6: pretreatment 238000
# Method: as §2, §3, §4, §6, §7
# as §1, with “Step 5” for “Step 4”, “rapid identification/quantification” for “rapid quantification”
compound,measurement,setting,value
CO/N=C(\C(=O)N[C@@H]1C(=O)N2C(C(=O)[O-])=C(C[N+]3(C)CCCC3)CS[C@H]12)c1csc(N)n1 [cefepim],drug sensitivity,K. oxytoca,sensitive
same,drug sensitivity,H. influenzae,sensitive
same,drug sensitivity,S. pneumoniae,medium-level sensitivity
same,BT (body temperature),"[1]; Case 2, 24 h after antibiotic",36.4 °C
same,WBC,"[1]; Case 2, 24 h after antibiotic",418.1 × 100/μL
same,CRP,"[1]; Case 2, 24 h after antibiotic",240.0 mg/L
same,Presepsin,"[1]; Case 2, 24 h after antibiotic",6202 ng/mL
same,IL-6,"[1]; Case 2, 24 h after antibiotic",7400 pg/mL
same,Pathogen (Ave),"[1]; Case 2, 24 h after antibiotic",31453 cells/ml
same,BT (body temperature),"[1]; Case 2, 72 h after antibiotic",36.3 °C
same,WBC,"[1]; Case 2, 72 h after antibiotic",348.7 × 100/μL
same,CRP,"[1]; Case 2, 72 h after antibiotic",145.5 mg/L
same,Presepsin,"[1]; Case 2, 72 h after antibiotic",6060 ng/mL
same,IL-6,"[1]; Case 2, 72 h after antibiotic",168 pg/mL
same,Pathogen (Ave),"[1]; Case 2, 72 h after antibiotic",2066 cells/ml
tazobactam/piperacillin,drug sensitivity,Escherichia coli [2],sensitive
same,drug sensitivity,Enterobacter aerogenes [3],sensitive
same,CRP,"Escherichia coli [4]; Case 3, 24 h after antibiotic",9.3 mg/L
same,BT (body temperature),"Escherichia coli [4]; Case 3, 24 h after antibiotic",36.6 °C
same,WBC,"Escherichia coli [4]; Case 3, 24 h after antibiotic",61.4 × 100/μL
same,Presepsin,"Escherichia coli [4]; Case 3, 24 h after antibiotic",267 ng/mL
same,IL-6,"Escherichia coli [4]; Case 3, 24 h after antibiotic",5 pg/mL
same,Pathogen (Ave),"Escherichia coli [4]; Case 3, 24 h after antibiotic",2102 cells/ml
same,CRP,"Escherichia coli [4]; Case 3, 72 h after antibiotic",2.9 mg/L
same,BT (body temperature),"Escherichia coli [4]; Case 3, 72 h after antibiotic",37.2 °C
same,WBC,"Escherichia coli [4]; Case 3, 72 h after antibiotic",49.2 × 100/μL
same,Presepsin,"Escherichia coli [4]; Case 3, 72 h after antibiotic",501 ng/mL
same,IL-6,"Escherichia coli [4]; Case 3, 72 h after antibiotic",6.3 pg/mL
same,Pathogen (Ave),"Escherichia coli [4]; Case 3, 72 h after antibiotic",2 cells/ml
same,CRP,"Escherichia coli [5]; Case 5, 24 h after antibiotic",9.3 mg/L
same,BT (body temperature),"Escherichia coli [5]; Case 5, 24 h after antibiotic",36.6 °C
same,WBC,"Escherichia coli [5]; Case 5, 24 h after antibiotic",61.4 × 100/μL
same,Presepsin,"Escherichia coli [5]; Case 5, 24 h after antibiotic",267 ng/mL
same,IL-6,"Escherichia coli [5]; Case 5, 24 h after antibiotic",5 pg/mL
same,Pathogen (Ave),"Escherichia coli [5]; Case 5, 24 h after antibiotic",2102 cells/ml
same,CRP,"Escherichia coli [5]; Case 5, 72 h after antibiotic",2.9 mg/L
same,BT (body temperature),"Escherichia coli [5]; Case 5, 72 h after antibiotic",37.2 °C
same,WBC,"Escherichia coli [5]; Case 5, 72 h after antibiotic",49.2 × 100/μL
same,Presepsin,"Escherichia coli [5]; Case 5, 72 h after antibiotic",501 ng/mL
same,IL-6,"Escherichia coli [5]; Case 5, 72 h after antibiotic",6.3 pg/mL
same,Pathogen (Ave),"Escherichia coli [5]; Case 5, 72 h after antibiotic",2 cells/ml
same,BT (body temperature),"[6]; Case 6, 24 h after antibiotic",37.0 °C
same,WBC,"[6]; Case 6, 24 h after antibiotic",77.3 × 100/μL
same,IL-6,"[6]; Case 6, 24 h after antibiotic",85.3 pg/mL
same,CRP,"[6]; Case 6, 24 h after antibiotic",139.8 mg/L
same,Presepsin,"[6]; Case 6, 24 h after antibiotic",854 ng/mL
same,Pathogen (Ave),"[6]; Case 6, 24 h after antibiotic",308 cells/ml
same,BT (body temperature),"[6]; Case 6, 72 h after antibiotic",37.2 °C
same,WBC,"[6]; Case 6, 72 h after antibiotic",54.1 × 100/μL
same,IL-6,"[6]; Case 6, 72 h after antibiotic",59.4 pg/mL
same,CRP,"[6]; Case 6, 72 h after antibiotic",43.2 mg/L
same,Presepsin,"[6]; Case 6, 72 h after antibiotic",708 ng/mL
same,Pathogen (Ave),"[6]; Case 6, 72 h after antibiotic",20 cells/ml
same,BT (body temperature),"Enterobacter aerogenes [7]; Case 7, 24 h after antibiotic",38.4 °C
same,WBC,"Enterobacter aerogenes [7]; Case 7, 24 h after antibiotic",258.5 × 100/μL
same,CRP,"Enterobacter aerogenes [7]; Case 7, 24 h after antibiotic",107 mg/L
same,Presepsin,"Enterobacter aerogenes [7]; Case 7, 24 h after antibiotic",1516 ng/mL
same,Pathogen (Ave),"Enterobacter aerogenes [7]; Case 7, 24 h after antibiotic",19156 cells/ml
same,IL-6,"Enterobacter aerogenes [7]; Case 7, 24 h after antibiotic",41700 pg/mL
same,BT (body temperature),"Enterobacter aerogenes [7]; Case 7, 72 h after antibiotic",36.4 °C
same,WBC,"Enterobacter aerogenes [7]; Case 7, 72 h after antibiotic",198.2 × 100/μL
same,CRP,"Enterobacter aerogenes [7]; Case 7, 72 h after antibiotic",241.4 mg/L
same,Presepsin,"Enterobacter aerogenes [7]; Case 7, 72 h after antibiotic",2473 ng/mL
same,Pathogen (Ave),"Enterobacter aerogenes [7]; Case 7, 72 h after antibiotic",59 cells/ml
same,IL-6,"Enterobacter aerogenes [7]; Case 7, 72 h after antibiotic",176 pg/mL
